From PubChem BioAssay (NCI)
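How tested: cells in 96-well plates exposed to compound for 48 hours at five concentrations. At the TGI there is no net growth.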

What was measured:
Assay in all cases: NCI tumour cell line growth inhibition, 48 h
[1] = system: SF-268 CNS
[2] = system: UACC-62 melanoma
[3] = system: EKVX NSCLC
[4] = system: NCI-H23 lung
[5] = system: CAKI-1 renal
[6] = system: MDA-MB-435
[7] = system: HCT-116 colon
[8] = system: T-47D breast
[9] = system: HOP-62 NSCLC
[10] = system: ACHN renal
[11] = system: SK-OV-3 ovarian
[12] = system: BT-549 breast
[13] = system: U251 CNS
[14] = system: PC-3 prostate
[15] = system: SK-MEL-2 melanoma
[16] = system: LOX IMVI melanoma
[17] = system: SF-539 CNS
[18] = system: RXF 393 renal
[19] = system: M19-MEL melanoma
[20] = system: KM20L2 colon

| Structure (SMILES) | TGI [1] [µM] | TGI [2] [µM] | TGI [3] [µM] | TGI [4] [µM] | TGI [5] [µM] | TGI [6] [µM] | TGI [7] [µM] | TGI [8] [µM] | TGI [9] [µM] | TGI [10] [µM] | TGI [11] [µM] | TGI [12] [µM] | TGI [13] [µM] | TGI [14] [µM] | TGI [15] [µM] | TGI [16] [µM] | TGI [17] [µM] | TGI [18] [µM] | TGI [19] [µM] | TGI [20] [µM] |
| --- | --- | --- | --- | --- | --- | --- | --- | --- | --- | --- | --- | --- | --- | --- | --- | --- | --- | --- | --- | --- |
| CN(C)CCN(C(=Nc1ccccc1)N1CCCC1)c1ccccc1 | > 100 | > 100 | > 100 | > 100 | > 100 | > 100 | > 100 | > 100 | > 100 | > 100 | > 100 | > 100 | > 100 | > 100 | > 100 | > 100 | – | – | – | – |
| C[N+](C)=c1nc(N2CCc3ccccc3C2)ss1 | > 100 | > 100 | – | – | > 100 | – | > 100 | – | > 100 | > 100 | > 100 | – | > 100 | – | > 100 | – | > 100 | > 100 | > 100 | > 100 |
| O=C(N/N=C\C(F)(F)F)c1ccncc1 | – | > 100 | – | 50.6 | > 100 | > 100 | – | – | > 100 | – | > 100 | > 100 | > 100 | > 100 | > 100 | > 100 | – | > 100 | – | – |
| NCc1cc(O)c(O)c(O)c1 | > 100 | > 100 | > 100 | – | > 100 | – | > 100 | – | > 100 | > 100 | > 100 | – | > 100 | – | > 100 | > 100 | – | > 100 | > 100 | > 100 |
| Cc1ccc(S(=O)(=O)NCCCSCCSCCCN)cc1 | > 100 | – | – | > 100 | – | > 100 | > 100 | > 100 | – | > 100 | > 100 | – | > 100 | > 100 | – | > 100 | – | > 100 | – | – |
| COC(=O)C1=C(C)N2CCOC2CC1c1ccccc1 (centres undefined) | > 100 | > 100 | > 100 | > 100 | > 100 | – | > 100 | – | > 100 | > 100 | – | – | – | – | > 100 | – | > 100 | > 100 | > 100 | > 100 |
| CCN(CC)CCN(C(=O)c1ccc(F)cc1)c1ccccc1N | > 10 | > 10 | > 10 | > 10 | > 10 | > 10 | > 10 | > 10 | > 10 | > 10 | > 10 | – | > 10 | > 10 | > 10 | > 10 | > 10 | > 10 | – | – |
| C/C(=N\NC(=S)NCc1ccccc1)c1nc2ncccc2[nH]1 | 65.6 | 27.1 | 8.51 | 40.8 | 61.2 | 33.5 | 17.3 | 43.3 | 26.2 | 52.9 | > 100 | – | 19.4 | 50.2 | 36 | 21.4 | 20.8 | – | – | – |
| Cc1ccc(S(=O)(=O)NNC2Oc3cc4c(cc3C(c3ccccc3O)C2C)OCO4)cc1 (centres undefined) | 28.5 | 29.8 | 23.8 | 33 | 28.9 | 26.8 | 22.1 | 25.6 | 29.6 | 26 | 37.9 | 27.3 | 22 | 22.8 | 22.8 | 32.8 | 33.3 | 19.3 | – | – |
| COc1cc(C(=O)Nc2cc(C(N)=O)cc(OC)c2OC)cc(NC(=O)/C=C/c2ccccc2)c1OC | – | 35.6 | > 100 | > 100 | – | > 100 | – | – | – | > 100 | > 100 | > 100 | – | > 100 | – | – | > 100 | > 100 | – | – |
| CNCCC=C1c2ccccc2CCc2ccccc21 | 29.6 | 28.3 | 29.2 | 29.9 | 27.7 | 28.2 | 27.8 | 23.5 | 28.2 | 30.2 | 25.2 | 29.1 | 27.6 | 27.4 | 29.2 | 26.7 | 44.1 | 22.6 | – | – |
| O=C(CCN1CCOCC1)C(=Cc1ccccc1)C(=O)CCN1CCOCC1 | 15.1 | 6.19 | 5.59 | 7.92 | 13.5 | – | 5.5 | – | 37.5 | – | 31.1 | – | 28.4 | – | 22.6 | 4.29 | 10 | 3.14 | 7.64 | 25 |
| COc1cc2oc(=O)ccc2cc1CC=C(C)C | > 100 | – | > 100 | > 100 | > 100 | > 100 | > 100 | > 100 | > 100 | > 100 | – | 81 | > 100 | > 100 | > 100 | > 100 | > 100 | 64.7 | – | – |
